Reference: patent US9593305B2, “Differentiation of pluripotent stem cells” (Janssen Biotech, Inc., priority 2008, dated 2017)

Test system: H1 human embryonic stem cells
Assay: Dose ranging of compounds with activin A or GDF-8, SOX17 and cell number (Example 15)
Assay type: cell-based
Conditions: for SOX17 expression in combination with GDF-8 / cell numbers at the end of assay in combination with GDF-8: 78 nM to 10 μM compound with 100 ng/ml GDF-8; for SOX17 expression with activin A treatment: 78 nM to 10 μM compound with 100 ng/ml activin A, one or three days of compound
Method: Stock cultures of human embryonic stem cells (H1 human embryonic stem cell line) were maintained in an undifferentiated, pluripotent state on reduced growth factor […]™ (BD Biosciences; Cat #356231)-coated dishes in MEF conditioned medium supplemented with 8 ng/ml bFGF (PeproTech Inc.; Cat #100-18B) with passage on average every four days. Passage was performed, by exposing cell cultures to a solution of 1 mg/ml dispase (Invitrogen; Cat #17105-041) for 5 to 7 minutes at 37° C. followed by rinsing the monolayer with MEF conditioned culture medium and gentle scraping to recover cell clusters. Clusters were centrifuged at low speed to collect a cell pellet and remove residual dispase. Cell clusters were split at a 1:3 or 1:4 ratio for routine maintenance culture or a 1:1 ratio for immediate assay. All human embryonic stem cell lines were maintained at passage numbers less than 50 and routinely evaluated for normal karyotype and absence of mycoplasma.
Cell clusters were evenly resuspended in MEF conditioned medium supplemented with 8 ng/ml bFGF and seeded onto reduced growth factor […]™-coated 96-well Packard VIEWPLATES (PerkinElmer; Cat #6005182) in volumes of 0.1 ml/well. Daily feeding was conducted by aspirating spent culture medium from each well and replacing with an equal volume of fresh medium. Plates were maintained at 37° C., 5% CO2 throughout the duration of assay.
Assay was initiated by aspirating the culture medium from each well and adding back aliquots (100 μl) of test medium. Test conditions were performed in quadruplicate over a total four-day assay period, feeding daily by aspirating and replacing the medium from each well with fresh test medium. […] Test compounds in this assay included six of the compounds of the present invention: Compound 181, Compound 180, Compound 19, Compound 202, Compound 40, and Compound 34, and a commercial GSK31 inhibitor BIO (EMD Chemicals, Inc.; Cat #361550). On the first day of assay, wells were treated with various control or experimental conditions. Control conditions, with final assay concentrations as indicated, were as follows: 1) growth medium alone; 2) 20 ng/ml Wnt3a only R&D Systems; Cat #1324-WN/CF); 3) 100 ng/ml activin A (PeproTech; Cat #120-14); 4) 100 ng/mlactivin A and 20 ng/ml Wnt3a; 5) 100 ng/ml GDF-8 (R&D Systems, Cat #788-G8); 6) 100 ng/ml GDF-8 and 20 ng/ml Wnt3a. Test compounds were diluted two-fold in series to yield a concentration range from 78 nM to 10 μM in the final assay. Experimental test samples combined each individual compound dilution series with 100 ng/ml activin A or 100 ng/ml GDF-8, both treatment sets in the absence of Wnt3a. On the second and third day of assay, some wells continued to be treated with 20 ng/ml Wnt3a or diluted test compound in combination with either activin A or GDF-8. In other wells, activin A or GDF-8 treatment continued on the second and third day of assay, but Wnt3a or diluted test compound was removed.
At the conclusion of culture, assay plates were washed once with PBS (Invitrogen; Cat #14190), fixed with 4% paraformaldehyde (Alexis Biochemical; Cat #ALX-350-011) at room temperature for 20 minutes, then washed three times with PBS and permeabilized with 0.5% Triton X-100 (Sigma; Cat #T8760-2) for 20 minutes at room temperature. Cells were washed again three times with PBS and blocked with 4% chicken serum (Invitrogen; Cat #16110082) in PBS for 30 minutes at room temperature. Primary antibody (goat anti-human SOX17; R&D Systems; Cat #AF1924) was diluted 1:100 in 4% chicken serum and added to each well for two hours at room temperature. After washing three times with PBS, Alexa Fluor 488 conjugated secondary antibody (chicken anti-goat IgG; Invitrogen; Cat #A21467) diluted 1:200 in PBS was added to each well. To counterstain nuclei, 5 μg/ml Hoechst 33342 (Invitrogen; Cat #H3570) was added for fifteen minutes at room temperature. Plates were washed once with PBS and left in 100 μl/well PBS for imaging. […]

| Molecule | SOX17 expression in combination with GDF-8 | cell numbers at the end of assay in combination with GDF-8 | SOX17 expression with activin A treatment | SOX17 expression, control treatments (100 ng/ml activin A versus 100 ng/ml GDF-8, alone or with Wnt3a) |
| --- | --- | --- | --- | --- |
| CN1CCC(=O)NCCCc2cncc(c2)-c2ncnc(n2)Nc2cccc(c2)C1 [Compound 19, 14-Methyl-3,5,7,14,18,24,28-heptaazatetracyclo[20.3.1.1˜2,6˜0.1˜8,12˜]octacosa-1(26), 2(28), 3,5,8(27), 9,11,22,24-nonaen-17-one] | significantly improved SOX17 expression | enhanced cell numbers | did not enhance SOX 17 expression |  |
| C=CCN1CC(=O)NCCCc2cncc(c2)-c2ncnc(n2)Nc2cccc(c2)C1 [Compound 40, 14-Prop-2-en-1-yl-3,5,7,14,17,23,27-heptaazatetracyclo[19.3.1.1˜2.6˜0.1˜8,12˜]heptacosa-1(25), 2(27), 3,5,8(26), 9,11,21,23-nonaen-16-one] | significantly improved SOX17 expression | enhanced cell numbers | did not enhance SOX 17 expression |  |
| O=C1CCN2CCN(CC2)Cc2cc(Cl)cc(c2)Nc2ncnc(n2)-c2cncc(c2)CCCN1 [Compound 34, 5-Chloro-1,8,10,12,16,22,26,32-octaazapentacyclo[24.2.2.1˜3.7˜0.1˜9,13˜0.1˜14.18˜]tritriaconta-3(33), 4,6,9(32), 10,12,14(31), 15,17-nonaen-23-one] | significantly improved SOX17 expression | enhanced cell numbers | did not enhance SOX 17 expression |  |
| Activin A: recombinant human activin A (PeproTech), TGF-beta family member |  |  |  | significantly higher SOX17 expression |
